Source: article PMC9735679, “Identification and Evolution of a Natural Tetr Protein Based on Molecular Docking and Development of a Fluorescence Polari-Zation Assay for Multi-Detection of 10 Tetracyclines in Milk” (Foods, 2022)
Like-named read-outs stand apart in the source and are kept apart here.

Assays:
Type in all cases: binding
[1] = target: T1, TetR mutant (Escherichia coli, UniProt P04483, H139W); assay: Fluorescence polarization assay (FPA) with TetR mutant; conditions: for FP values at 0 and 100 ng/mL / LOD (limit of detection, IC10) / inhibition ratio (1-FP/FP0): TetR mutant; for FP values at 0 and 100 ng/mL: either tracer (FITC-MC or FA-MC), specificity test; for LOD (limit of detection, IC10): FPA, FA-MC tracer, drugs diluted with blank milk extract; for inhibition ratio (1-FP/FP0): 100 ng/mL
T1 construct: made in house; host or cells: E. coli Rosetta-gami(BL21), vector pET28a
Procedure: (§1) The FPA method was performed as follows. A total of 50 μL mutant, 50 μL TCs solution, and 50 μL fluorescent tracer were added into the wells of a 96-well microplate (in triplicate) and incubated for 2 min. Then the fluorescence polarization (FP) value of each well was recorded (λex 485 nm, λem 528 nm, emission cutoff of 515 nm). During the experiments, the two fluorescent tracers were compared, and several other parameters were optimized, including tracer concentration, mutant concentration, Mg^2+ concentration and incubation time. The 10 TCs and several other classes of drugs were all tested by this method. The competitive curve was developed by plotting the FP/FP0 values (the fluorescence polarization value at each concentration divided by that of zero concentration) versus the concentrations of the TCs (log C). Based on the developed competitive curve, the half of inhibition (IC50) and the limit of detection (IC10) for each drug were determined, respectively.
For obtaining the best method performance, several parameters were optimized with DMC as the representative. Firstly, the concentrations of FA-MC and the mutant were optimized. During the experiments, the FA-MC and the mutant at different concentrations were mixed with the same concentration of DMC to perform the assay. […] Secondly, the concentration of Mg^2+ (MgCl2) was optimized. […] Thirdly, the competition time was optimized.
(§2) This is the first study reporting an FPA method for the determination of TCs. Under the optimal conditions, the 10 TCs were diluted with the extracts of a blank milk sample to be analyzed, respectively. […] During the experiments, the natural TetR was also used to perform the FPA method as described above.

[2] = target: T2, natural TetR (Escherichia coli, UniProt P04483); assay: Surface plasmon resonance affinity, natural TetR; conditions: for Kd: KD (equilibrium dissociation constant, Kd/Ka); for Kd / koff (dissociation rate constant): SPR
T2 construct: made in house
Procedure: (§3) After the experiments, the association constant (Ka), the dissociation constant (Kd), and the equilibrium dissociation constant (KD = Kd/Ka) for each drug were calculated. For convenience in comparing their affinities, the absolute affinity constant (KA = […]) for each drug was also calculated.

[3] = target: T2, natural TetR; assay: Fluorescence polarization assay (FPA) with natural TetR
Procedure: as §1, §2

[4] = target: T1, TetR mutant; assay: Surface plasmon resonance affinity, TetR mutant; conditions: SPR; for Kd: KD (equilibrium dissociation constant, Kd/Ka)
Procedure: as §3
The primers were designed according to the virtual model: mutant for, […]; mutant rev, […]. The amplified gene was inserted into pET28a to construct the express vector that was transformed into E. coli Rosetta-gami(BL21) to express the mutant, and these procedures were according to our recent report. The obtained TetR mutant was characterized by using SDS-PAGE and western blotting according to our recent report, and its recognition ability for the 10 TCs was evaluated by the following FPA method. Furthermore, its recognition mechanisms and affinities for the 10 TCs were also determined as described above.

[5] = read-out: Ka (association constant), TetR without Mg2+, SPR
[6] = read-out: Ka (association constant), TetR+Mg2+, SPR

Row | SMILES | FP values at 0 and 100 ng/mL [1] | Kd ([2]; TetR without Mg2+) | Kd ([2]; TetR+Mg2+) | koff (dissociation rate constant) ([2]; TetR without Mg2+) | koff (dissociation rate constant) ([2]; TetR+Mg2+) | kon [2, 5] | kon [2, 6] | IC50 [3] | Kd ([4]; TetR mutant without Mg2+) | Kd ([4]; TetR mutant+Mg2+) | Dissociation rate constant (koff) ([4]; TetR mutant without Mg2+) | Dissociation rate constant (koff) ([4]; TetR mutant+Mg2+) | IC50 [1] | LOD (limit of detection, IC10) [1] | inhibition ratio (1-FP/FP0) ([1]; tracer FA-MC) | inhibition ratio (1-FP/FP0) ([1]; tracer FITC-MC)
1 | CN1C(=O)CN=C(c2ccccc2)c2cc(Cl)ccc21 [diazepam] | comparably high | – | – | – | – | – | – | – | – | – | – | – | – | – | – | –
2 | CN(C)[C@@H]1C(O)=C(C(N)=O)C(=O)[C@@]2(O)C(O)=C3C(=O)c4c(O)cccc4[C@@](C)(O)[C@H]3C[C@@H]12 [TC, tetracycline] | – | 7690 nM | 4790 nM | 0.00156 s⁻¹ | 0.00133 s⁻¹ | 203 M⁻¹ s⁻¹ | 278 M⁻¹ s⁻¹ | 146 nM | 768 nM | 62.1 nM | 0.000156 s⁻¹ | 0.000121 s⁻¹ | 85.5 nM | 1.3 ng/mL | – | –
3 | [H]/N=C(/N)N[C@H]1[C@H](O)[C@@H](O)[C@H](O[C@@H]2O[C@@H](C)[C@](O)(C=O)[C@H]2O[C@@H]2O[C@@H](CO)[C@H](O)[C@@H](O)[C@@H]2NC)[C@@H](N/C(N)=N\[H])[C@@H]1O [streptomycin] | comparably high | – | – | – | – | – | – | – | – | – | – | – | – | – | – | –
4 | C=C1c2cccc(O)c2C(=O)C2=C(O)[C@]3(O)C(=O)C(C(N)=O)=C(O)[C@@H](N(C)C)[C@@H]3[C@@H](O)[C@H]12 [MTC, Methacycline] | – | 111 nM | 122 nM | 0.00016 s⁻¹ | 0.000162 s⁻¹ | 1440 M⁻¹ s⁻¹ | 1330 M⁻¹ s⁻¹ | 114 nM | 3.97 nM | 0.3 nM | 5.71e-06 s⁻¹ | 5.59e-06 s⁻¹ | 110 nM | 1.5 ng/mL | – | –
5 | CN(C)CCCN1c2ccccc2Sc2ccc(Cl)cc21 [chlorpromazine] | comparably high | – | – | – | – | – | – | – | – | – | – | – | – | – | – | –
6 | CN(C)[C@@H]1C(O)=C(C(N)=O)C(=O)[C@@]2(O)C(O)=C3C(=O)c4c(O)ccc(Cl)c4[C@@](C)(O)[C@H]3C[C@@H]12 [CTC, chlortetracycline] | – | 4990 nM | 2560 nM | 0.0148 s⁻¹ | 0.0113 s⁻¹ | 2970 M⁻¹ s⁻¹ | 4430 M⁻¹ s⁻¹ | 167 nM | 16.3 nM | 9.11 nM | 0.000822 s⁻¹ | 0.000404 s⁻¹ | 115 nM | 1.4 ng/mL | – | –
7 | CN(C)[C@@H]1C(O)=C(C(=O)NCNCCCC[C@H](N)C(=O)O)C(=O)[C@@]2(O)C(O)=C3C(=O)c4c(O)cccc4[C@@](C)(O)[C@H]3C[C@@H]12 [LMC, Lymecycline] | – | 366 nM | 263 nM | 0.00116 s⁻¹ | 0.00121 s⁻¹ | 3170 M⁻¹ s⁻¹ | 4590 M⁻¹ s⁻¹ | 92.3 nM | 2.54 nM | 1.09 nM | 7.25e-05 s⁻¹ | 0.00011 s⁻¹ | 75.8 nM | 1.0 ng/mL | – | –
8 | C[C@H]1c2cccc(O)c2C(=O)C2=C(O)[C@]3(O)C(=O)C(C(N)=O)=C(O)[C@@H](N(C)C)[C@@H]3[C@@H](O)[C@@H]21 [DC, doxycycline] | – | 21.1 nM | 41.1 nM | 0.00113 s⁻¹ | 0.0018 s⁻¹ | 53400 M⁻¹ s⁻¹ | 43900 M⁻¹ s⁻¹ | 82.4 nM | 0.249 nM | 0.641 nM | 6.65e-05 s⁻¹ | 0.000113 s⁻¹ | 68.2 nM | 1.0 ng/mL | – | –
9 | CN(C)[C@@H]1C(O)=C(C(N)=O)C(=O)[C@@]2(O)C(O)=C3C(=O)c4c(O)cccc4[C@@](C)(O)[C@H]3[C@H](O)[C@@H]12 [OTC, oxytetracycline] | – | 965 nM | 409 nM | 0.00199 s⁻¹ | 0.00144 s⁻¹ | 2060 M⁻¹ s⁻¹ | 3520 M⁻¹ s⁻¹ | 130 nM | 1.76 nM | 1.48 nM | 7.96e-05 s⁻¹ | 0.00012 s⁻¹ | 78.2 nM | 0.8 ng/mL | – | –
10 | CN(C)[C@@H]1C(O)=C(C(N)=O)C(=O)[C@@]2(O)C(O)=C3C(=O)c4c(O)cccc4C[C@H]3C[C@@H]12 [SC, Sancycline] | – | 59.5 nM | 70.2 nM | 0.000127 s⁻¹ | 0.000162 s⁻¹ | 2140 M⁻¹ s⁻¹ | 2310 M⁻¹ s⁻¹ | 106 nM | 0.593 nM | 0.417 nM | 6.35e-06 s⁻¹ | 5.79e-06 s⁻¹ | 70 nM | 0.7 ng/mL | – | –
11 | CN(C)[C@@H]1C(O)=C(C(N)=O)C(=O)[C@@]2(O)C(O)=C3C(=O)c4c(O)ccc(Cl)c4[C@@H](O)[C@H]3C[C@@H]12 [DMC, demeclocycline] | – | 74.4 nM | 27.6 nM | 0.000206 s⁻¹ | 0.000127 s⁻¹ | 2770 M⁻¹ s⁻¹ | 4610 M⁻¹ s⁻¹ | 66.7 nM | 3.1 nM | 0.0928 nM | 1.72e-05 s⁻¹ | 4.7e-06 s⁻¹ | 33.3 nM | 0.4 ng/mL | 69% | 52%
12 | O=C(O)c1cn(C2CC2)c2cc(N3CCNCC3)c(F)cc2c1=O [ciprofloxacin] | comparably high | – | – | – | – | – | – | – | – | – | – | – | – | – | – | –
